Results published in US20050261478A1, “Compositions and methods for regulating lymphocyte activation” (XCYTE Therapies, Inc., priority 1998, published 2005).
One block for each molecule: values may come before it. Bridge positions count the residues as written; N and C are the ends. Peptide text beside a SMILES is read from it.

Key:
[1] = tested on: CD8^+ T cells; test: Proliferation of purified T cell subsets with immobilized antibodies; type: cell-based, human; details: antibodies immobilized on microtiter plates, 4 days
Description: (§1) T cells were isolated from peripheral blood by centrifugation on “FICOLL”, followed by separation into CD4^+ or CD8^+ subsets by depletion of monocytes, B cells, NK cells, and either CD4 or CD8 cells. Cell depletion was performed using mAbs to CD14, CD20, CD11b, and CD8 or CD4 followed by removal of antibody-bound cells using magnetic beads coated with anti-mouse IgG CD4^+ or CD8^+ T cells were >95% pure after the depletion step when analyzed by flow cytometry. Cells were cultured in antibody-coated microtiter plates at 5×10^4 for 4 days, and proliferation was measured by incorporation of ^3H-thymidine for the final 12 hours of culture. Microtiter plates contained immobilized antibodies as indicated, including the control, nonbinding L20 antibody in some wells to equalize the total protein concentration for immobilization. Antibodies were immobilized by incubation at 10 μg/ml each for 18 hr at 37° C., followed by removal of unbound protein by extensive washing.

[2] = tested on: CD4^+ T cells; test: as above; type: cell-based, human; details: antibodies immobilized on microtiter plates, 4 days
Description: as §1

[3] = target: T1, CD28Ig (Homo sapiens, UniProt P10747); test: BIACORE binding of CDR3 peptides; details: peptides cyclized and characterized as pools of 3-5, nd = non detectable binding, read-out: Binding Affinity, CD28Ig
T1 construct: human Ig (huIg) fusion partner
Description: (§2) Peptides corresponding to the entire CDR3 regions of anti-CD3 and […] mAbs were synthesized, and Tyr/Phe-Cysteine residues were added to both amino and carboxyl termini. Modifications of peptides were made by eliminating one amino acid of the CDR3 region at a time from the terminus. Peptide synthesis was carried out on solid phase by using Fmoc chemistry (HBTU/DIEA activation and TFA cleavage). Crude peptides were combined in a batch of 3-5 peptides and cyclized by air oxidation at pH 8.5. Crude cyclic peptides were purified on a reverse phase HPLC, lyophilized and characterized by analytical HPLC and mass spectroscopy.
(§3) BIACORE uses surface plasmon resonance (SPR) which occurs when surface plasmon waves are excited at a metal/liquid interface. Light is directed at, and reflected due to bimolecular interactions between analyte (in solution) and ligand (immobilized). CD3εδhuIg, CD3εεhuIg and CD28huIg were covalently immobilized on a carboxymethy dextran chip using EDC/NHS chemistry followed by blocking with ethanol amine. Peptides were dissolved in HBS buffer at pH 7.2 with or without 1% DMSO, and were allowed to pass over these fusion protein-immobilized surfaces. Non-specific binding was substrated by passing these peptides over a controlled surface prepared by immobilizing EDC/NHS alone followed by ethanolamine.

[4] = target: T2, CD3ε δIg (Homo sapiens, UniProt P04234+P07766); test: BIACORE binding of CDR3 peptides; details: peptides cyclized and characterized as pools of 3-5, CD3ε δhuIg impure mixture, nd = non detectable binding, read-out: Binding Affinity, CD3ε δIg
T2 construct: made in house; host or cells: COS-7 (transient, DEAE-dextran); purified on protein A-Sepharose
Description: as §2, §3

[5] = tested on: G19-4 anti-CD3 mAb; test: ELISA of CD3-Ig fusion proteins captured by immobilized anti-CD3 mAb; type: binding; details: up to 100 μg/ml fusion protein
From the text: Transient expression in COS-7 cells was used to generate different CD3-Ig fusion proteins. The plasmids phCD3ε-Ig, and phCD3γ-Ig were transfected individually or in combinations of phCD3ε-Ig+phCD3δ-Ig and phCD3ε-Ig+phCD3γ-Ig into COS-7 by the DEAE-dextran method. Transfected cells were maintained in medium supplemented with a low concentration, 0.5%, FBS and insulin. Spent media were collected in three-day intervals up to three weeks post transfection. Fusion proteins were then purified from spent media by protein A-Sepharose chromatography. Fusion protein expression was confirmed by SDS-PAGE and ELISA using anti-CD3 mAb.
CD3-Ig fusion proteins were characterized by ELISA using a number of anti-CD3 mAbs including G19-4, OKT3, BC3, and 64.1 Anti-CD3 mAbs were immobilized to capture CD3-Ig. An antibody-horseradish peroxidase conjugate specific against human IgG […] was used to detect the binding of CD3-Ig to anti-CD3 mAbs. Like the control CD4-Ig, no binding of CD3δ-Ig to G19-4 was detectable even at 100 μg/ml of the fusion protein (FIG. 20). […] and […] saturated at 4 μg/ml and 20 μg/ml in this assay, respectively. […] In addition, binding affinities of the CD3-Ig fusion proteins to different anti-CD3 antibodies were measured by BIACORE, and the results are shown in Table IV. […]

T2 sequence (P07766 23-126): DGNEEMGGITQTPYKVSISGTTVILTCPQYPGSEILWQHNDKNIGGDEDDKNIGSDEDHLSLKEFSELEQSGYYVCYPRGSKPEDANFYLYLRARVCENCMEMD
T2 sequence (P04234 22-100): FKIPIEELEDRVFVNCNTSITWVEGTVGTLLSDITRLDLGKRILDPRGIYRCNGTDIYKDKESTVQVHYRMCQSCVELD
T1 sequence (P10747 19-152 limits assumed): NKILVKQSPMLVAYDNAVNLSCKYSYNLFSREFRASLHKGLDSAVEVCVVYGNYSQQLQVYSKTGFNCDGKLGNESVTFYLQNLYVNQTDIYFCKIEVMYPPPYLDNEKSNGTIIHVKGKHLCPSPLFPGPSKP

Molecule: OKT-3: MAb anti-CD3, obtained from ATCC (ATCC CRL-8001)
- Proliferation of CD8^+ T cells [1]: minimal
- Proliferation of CD4^+ T cells [2]: minimal

- Kd [3]: 166 µM
- Kd [4]: 7 µM
Molecule: YCRSAYYDYDGIAYCW [cyclized peptide derived from CDR3 region of an anti-CD3 or anti-CD28 mAb]

- Kd [3]: 1 µM
Molecule: YCGYSYYYSMDYCW [cyclized peptide derived from CDR3 region of an anti-CD3 or anti-CD28 mAb]

- Kd [4]: 0.5 µM
Molecule: NCCCC[C@@H]1NC(=O)[C@H](Cc2c[nH]c3ccccc23)NC(=O)[C@H](CC(=O)O)NC(=O)[C@H](Cc2ccccc2)NC(=O)[C@@H](NC(=O)[C@@H](N)Cc2ccc(O)cc2)CSSC[C@@H](C(=O)N[C@@H](Cc2ccc(O)cc2)C(=O)O)NC(=O)[C@H](CC(N)=O)NC1=O [YCFDWKNCY (SEQ ID NO:80)] (H-YCFDWKNCY-OH; disulfide 2-8; N-terminus and C-terminus assumed)

- Kd [4]: 50 µM
Molecule: YCARDSDWYFDVCW [cyclized peptide derived from CDR3 region of an anti-CD3 or anti-CD28 mAb]

- Binding of CD3-Ig fusion protein to G19-4 [5]: detectable
Molecule: CD3ε-Ig: CD3ε extracellular domain fused to human IgG1 hinge-CH2-CH3

- Kd [4]: 10 µM
Molecule: N[C@@H](Cc1ccc(O)cc1)C(=O)N[C@H]1CSSC[C@@H](C(=O)N[C@@H](Cc2ccc(O)cc2)C(=O)O)NC(=O)CNC(=O)[C@H](CC(=O)O)NC(=O)[C@H](Cc2ccc(O)cc2)NC(=O)[C@H](CC(=O)O)NC(=O)[C@H](Cc2ccc(O)cc2)NC1=O [YCYDYDGCY (SEQ ID NO:75)] (H-YCYDYDGCY-OH; disulfide 2-8; N-terminus and C-terminus assumed)

- Binding of CD3-Ig fusion protein to G19-4 [5]: detectable
B1: CD3γ-Ig: CD3γ extracellular domain fused to human IgG1 hinge-CH2-CH3 (protein)
chain: QSIKGNHLVKVYDYQEDGSVLLTCDAEAKNITWFKDGKMIGFLTEDKKKWNLGSNAKDPRGMYQCKGSQNKSKPLQVYYRMCQNCIELNAATIS
modifications: left off: a dimerising Fc or GST
notes: CD3γ extracellular domain fused to human IgG1 hinge-CH2-CH3
